From patent US20230416205A1, “COMPOUNDS, COMPOSITIONS, AND METHODS” (Denali Therapeutics Inc, priority 2020, published 2023)
Where two headings read alike, the source gives them in different places.

Test system: NLRP3
Assay: IL-1β secretion assay in PMA-differentiated, LPS/nigericin-stimulated THP-1 cells (384-well, ELISA read-out)
Format: cell-based, human
Summary of the method: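 Secreted IL-1β quantified by capture ELISA from supernatants of PMA-differentiated THP-1 cells (30K per well). Sequence: LPS 25 ng/mL priming 2 h, compound 1 h, nigericin 2 h; dose-responses normalized between high (LPS plus 5 μM nigericin) and low (LPS alone) controls.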

[1] = Homo sapiens, THP-1, IL-1β secretion, PMA-differentiated THP-1 cells, LPS then nigericin stimulation, ELISA read at 450 nm, read-out: Activity
[2] = Homo sapiens, THP-1, Table 4, IL-1β secretion, LPS/nigericin-stimulated THP-1 cells, read-out: IC50
[3] = Table 4, IL-1β secretion, LPS/nigericin-stimulated THP-1 cells, read-out: IC50

## O=C(CN1CC2(CC2)c2c(ccc(C3CC3)c2F)C1=O)Nc1ncc(F)cn1 [Example 100, 2-(6-cyclopropyl-5-fluoro-1-oxospiro[3H-isoquinoline-4,1′-cyclopropane]-2-yl)-N-(5-fluoropyrimidin-2-yl)acetamide]
[1]
  IC50: < 10 µM
[2]
  IC50: 0.114 µM

## O=C(CN1CC2(CC2)c2cc(Br)ccc2C1=O)Nc1nccn2ncnc12 [Example 346, 2-(6-bromo-1-oxospiro[3H-isoquinoline-4,1′-cyclopropane]-2-yl)-N-([1,2,4]triazolo[1,5-a]pyrazin-8-yl)acetamide]
[2]
  IC50: 1.57 µM

## O=C(CN1CC2(CC2)c2cc(Br)ccc2C1=O)Nc1ccc2ncccc2c1 [Example 130, 2-(6-bromo-1-oxospiro[3H-isoquinoline-4,1′-cyclopropane]-2-yl)-N-quinolin-6-ylacetamide]
[1]
  IC50: < 10 µM
[2]
  IC50: 1.23 µM

## O=C(CN1CC2(CC2)c2cc(Br)ccc2C1=O)Nc1ccc2scnc2c1 [Example 146, N-(1,3-benzothiazol-5-yl)-2-(6-bromo-1-oxospiro[3H-isoquinoline-4,1′-cyclopropane]-2-yl)acetamide]
[1]
  IC50: < 10 µM
[2]
  IC50: 2.74 µM

## O=C(CN1C[C@@]2(C[C@@H]2F)c2cc(C(F)(F)F)ccc2C1=O)Nc1ncc(Cl)cn1 (single isomer, unassigned) [Example 238, N-(5-chloropyrimidin-2-yl)-2-[(2′s,4r)-2′-fluoro-1-oxo-6-(trifluoromethyl)spiro[3H-isoquinoline-4,1′-cyclopropane]-2-yl]acetamide]
[1]
  IC50: < 10 µM
[3]
  IC50: 0.414 µM

## O=C(CN1C[C@@]2(C[C@@H]2F)c2cc(C(F)(F)F)ccc2C1=O)Nc1ncccn1 (single isomer, unassigned) [Example 240, 2-[(2′s,4r)-2′-fluoro-1-oxo-6-(trifluoromethyl)spiro[3H-isoquinoline-4,1′-cyclopropane]-2-yl]-N-pyrimidin-2-ylacetamide]
[1]
  IC50: < 10 µM
[3]
  IC50: 1.22 µM

## CCC1CN(CC(=O)Nc2ncncc2F)C(=O)c2ccc(Br)cc21 (stereo not shown) [Example 1, 2-(6-bromo-4-ethyl-1-oxo-3,4-dihydroisoquinolin-2(1H)-yl)-N-(5-fluoropyrimidin-4-yl)acetamide]
[1]
  IC50: < 10 µM
[2]
  IC50: 1.38 µM

## Cc1cnc(NC(=O)CN2C[C@@]3(C[C@@H]3F)c3cc(C(F)(F)F)ccc3C2=O)nc1 (single isomer, unassigned) [Example 244, 2-[(2′s,4r)-2′-fluoro-1-oxo-6-(trifluoromethyl)spiro[3H-isoquinoline-4,1′-cyclopropane]-2-yl]-N-(5-methylpyrimidin-2-yl)acetamide]
[1]
  IC50: < 10 µM
[3]
  IC50: 0.075 µM

## O=C(CN1CC2(CC2(F)F)c2c(ccc(C3CC3)c2F)C1=O)Nc1ncc(F)cn1 (stereo not shown) [Example 322, N-(5-fluoropyrimidin-2-yl)-2-[6-cyclopropyl-1′,1′,5-trifluoro-1-oxospiro[3H-isoquinoline-4,2′-cyclopropane]-2-yl]acetamide]
[2]
  IC50: 0.038 µM

## O=C(CN1CC2(CC2)c2cc(Br)ccc2C1=O)Nc1ccc2ccncc2c1 [Example 191, 2-(6-bromo-1-oxospiro[3H-isoquinoline-4,1′-cyclopropane]-2-yl)-N-isoquinolin-7-ylacetamide]
[1]
  IC50: < 10 µM
[2]
  IC50: 1.15 µM

## O=C(CN1CC2(CC2(F)F)c2c(ccc(Br)c2F)C1=O)Nc1ncc(C(F)(F)F)cn1 (single isomer, unassigned) [Example 323, 2-[6-bromo-1′,1′,5-trifluoro-1-oxospiro[3H-isoquinoline-4,2′-cyclopropane]-2-yl]-N-[5-(trifluoromethyl)pyrimidin-2-yl]acetamide]
[3]
  IC50: > 10 µM

## O=C(CN1CC2(CC2)c2cc(Br)ccc2C1=O)Nc1cccc2ncccc12 [Example 162, 2-(6-bromo-1-oxospiro[3H-isoquinoline-4,1′-cyclopropane]-2-yl)-N-quinolin-5-ylacetamide]
[1]
  IC50: < 10 µM
[2]
  IC50: 3.54 µM

## O=C(CN1CC2(CC2)c2c(ccc(C(F)(F)F)c2F)C1=O)Nc1ncc(F)cn1 [Example 35, 2-[5-fluoro-1-oxo-6-(trifluoromethyl)spiro[3H-isoquinoline-4,1′-cyclopropane]-2-yl]-N-(5-fluoropyrimidin-2-yl)acetamide]
[1]
  IC50: < 10 µM
[2]
  IC50: 0.366 µM

## C[C@]1(O)C[C@@H](NC(=O)CN2CC3(CC3)c3cc(Br)ccc3C2=O)C1 [Example 19, 2-(6-bromo-1-oxospiro[3H-isoquinoline-4,1′-cyclopropane]-2-yl)-N-(cis-3-hydroxy-3-methylcyclobutyl)acetamide]
[1]
  IC50: < 10 µM
[2]
  IC50: 0.153 µM

## O=C(CN1CC2(CC2)c2cc(Br)ccc2C1=O)Nc1ccn2ccnc2n1 [Example 374, 2-(6-bromo-1-oxospiro[3H-isoquinoline-4,1′-cyclopropane]-2-yl)-N-imidazo[1,2-a]pyrimidin-7-ylacetamide]
[2]
  IC50: 9.45 µM

## O=C(CN1CC(CF)c2cc(Br)ccc2C1=O)Nc1ncc(F)cn1 (single isomer, unassigned) [Example 292, 2-[6-bromo-4-(fluoromethyl)-1-oxo-3,4-dihydroisoquinolin-2-yl]-N-(5-fluoropyrimidin-2-yl)acetamide]
[1]
  IC50: < 10 µM
[3]
  IC50: 3.94 µM

## Cn1cc(-c2cnc(NC(=O)CN3CC4(CC4)c4cc(Br)ccc4C3=O)nc2)cn1 [Example 257, 2-(6-bromo-1-oxospiro[3H-isoquinoline-4,1′-cyclopropane]-2-yl)-N-[5-(1-methylpyrazol-4-yl)pyrimidin-2-yl]acetamide]
[1]
  IC50: < 10 µM
[2]
  IC50: 0.392 µM

## O=C(CN1CC2(CC2)c2cc(Br)ccc2C1=O)Nc1nccn2ccnc12 [Example 351]
[2]
  IC50: 4.23 µM

## CC1(O)CCN(C(=O)CN2CC3(CC3)c3cc(Br)ccc3C2=O)C1 (stereo not shown) [Example 68, 6-bromo-2-[2-(3-hydroxy-3-methyl-pyrrolidin-1-yl)-2-oxo-ethyl]spiro[3H-isoquinoline-4,1′-cyclopropane]-1-one]
[1]
  IC50: > 15 µM
[2]
  IC50: 28.6 µM

## COCOc1cnc(NC(=O)CN2CC3(CC3)c3cc(Br)ccc3C2=O)nc1 [Example 316, 2-(6-bromo-1-oxospiro[3H-isoquinoline-4,1′-cyclopropane]-2-yl)-N-[5-(methoxymethoxy)pyrimidin-2-yl]acetamide]
[2]
  IC50: 0.704 µM

## N#Cc1cnc(NC(=O)CN2CC3(CC3(F)F)c3c(ccc(Br)c3F)C2=O)nc1 (single isomer, unassigned) [Example 320, 2-[6-bromo-1′,1′,5-trifluoro-1-oxospiro[3H-isoquinoline-4,2′-cyclopropane]-2-yl]-N-(5-cyanopyrimidin-2-yl)acetamide]
[3]
  IC50: 0.014 µM

## CC(C)(O)C1CCN(C(=O)CN2CC3(CC3)c3cc(Br)ccc3C2=O)C1 (stereo not shown) [Example 66, 6-bromo-2-[2-[3-(1-hydroxy-1-methyl-ethyl)pyrrolidin-1-yl]-2-oxo-ethyl]spiro[3H-isoquinoline-4,1′-cyclopropane]-1-one]
[1]
  IC50: > 15 µM
[2]
  IC50: 26.2 µM

## O=C(CN1CC2(CC2)c2cc([C@@]3(F)C[C@H]3F)ccc2C1=O)Nc1ncc(F)cn1 (single isomer, unassigned) [Example 253, 2-[6-[(1r,2s)-1,2-difluorocyclopropyl]-1-oxospiro[3H-isoquinoline-4,1′-cyclopropane]-2-yl]-N-(5-fluoropyrimidin-2-yl)acetamide]
[1]
  IC50: < 10 µM
[2]
  IC50: 0.597 µM

## O=C(CN1CC2(CC2)c2cc([C@@]3(F)C[C@@H]3F)ccc2C1=O)Nc1ncc(F)cn1 (single isomer, unassigned) [Example 251, 2-[6-[(1r,2r)-1,2-difluorocyclopropyl]-1-oxospiro[3H-isoquinoline-4,1′-cyclopropane]-2-yl]-N-(5-fluoropyrimidin-2-yl)acetamide]
[1]
  IC50: < 10 µM
[2]
  IC50: 0.55 µM

## N#Cc1cnc(NC(=O)CN2C[C@]3(C[C@H]3F)c3cc(C4CC4)ccc3C2=O)nc1 [Example 233]
[1]
  IC50: < 10 µM
[2]
  IC50: 0.045 µM

## O=C(CN1CC2(CC2)c2cc(Br)ccc2C1=O)NC1CC2(COC2)C1 [Example 61, 2-(6-bromo-1-oxo-spiro[3H-isoquinoline-4,1′-cyclopropane]-2-yl)-N-(2-oxaspiro[3.3]heptan-6-yl)acetamide]
[1]
  IC50: < 10 µM
[2]
  IC50: 2.75 µM

## O=C(CN1CC2(CC2)c2cc(Br)ccc2C1=O)Nc1ccc2ocnc2c1 [Example 173, N-(1,3-benzoxazol-5-yl)-2-(6-bromo-1-oxospiro[3H-isoquinoline-4,1′-cyclopropane]-2-yl)acetamide]
[1]
  IC50: < 10 µM
[2]
  IC50: 2.3 µM

## CC1CN(CC(=O)Nc2ncccn2)C(=O)c2ccc(Br)cc21 (stereo not shown) [Example 74, 2-(6-bromo-4-methyl-1-oxo-3,4-dihydroisoquinolin-2-yl)-N-pyrimidin-2-yl-acetamide]
[1]
  IC50: < 10 µM
[2]
  IC50: 1.76 µM

## Cc1ccnc(NC(=O)CN2CC3(CC3)c3cc(Br)ccc3C2=O)c1 [Example 182, 2-(6-bromo-1-oxospiro[3H-isoquinoline-4,1′-cyclopropane]-2-yl)-N-(4-methylpyridin-2-yl)acetamide]
[1]
  IC50: < 10 µM
[2]
  IC50: 3.14 µM

## N#Cc1c(C(F)(F)F)ccc2c1C1(CC1)CN(CC(=O)Nc1ncc(F)cn1)C2=O [Example 89, 2-[5-cyano-1-oxo-6-(trifluoromethyl)spiro[3H-isoquinoline-4,1′-cyclopropane]-2-yl]-N-(5-fluoropyrimidin-2-yl)acetamide]
[1]
  IC50: < 10 µM
[2]
  IC50: 6.84 µM

## O=C(CN1CC2(CC2)c2cc(Br)ccc2C1=O)Nc1nc2n(n1)CCC2 [Example 188, 2-(6-bromo-1-oxospiro[3H-isoquinoline-4,1′-cyclopropane]-2-yl)-N-(6,7-dihydro-5H-pyrrolo[1,2-b][1,2,4]triazol-2-yl)acetamide]
[1]
  IC50: < 10 µM
[2]
  IC50: 1.29 µM
